# Reference: patent publication US11439609B2, “Nitric oxide releasing PLGA microspheres for biomedical applications” (THE REGENTS OF THE UNIVERSITY OF MICHIGAN, priority 2015, dated 2022)
# Assay: Morphology and size distribution by SEM
# Format: physicochemical
# Conditions: cryomilled at −196° C.
# Description: For morphology and size distribution analysis, microspheres were coated with 40 nm of gold using a sputter coater (Desk II, Denton Vacuum Inc., Hill, N.J., USA) for 120 seconds. Secondary electron micrographs were taken by a Hitachi S-3200N Variable Pressure SEM (Hitachi High-Technologies Corp., Tokyo, Japan). The applied accelerating voltage was 15 kV. For size distribution measurements, the diameter of at least 500 particles was measured and analyzed with ImageJ software (see, e.g., C. A. Schneider, W. S. Rasband, K. W. Eliceiri, NIH Image to ImageJ: 25 years of image analysis, Nature Methods. 9 (2012) 671-675). For cross-sectional images, the microspheres were cut using a razor-blade on a glass slide prior to coating with gold for the SEM analysis.
compound,measurement,value
"CC(=O)N[C@@H](C(=O)O)C(C)(C)SN=O [SNAP, S-nitroso-N-acetyl-D-penicillamine]",particle dimensions after micronization,< 25 μm
